Earlier results as cited in patent publication US8101633B2, “Preparation and utility of substituted imidazopyridine compounds with hypnotic effects” (Auspex Pharmaceuticals, Inc., priority 2006, dated 2012).

System: cytochrome P450
Details: background statement

Q: With `Cc1ccc(-c2nc3ccc(C)cn3c2CC(=O)N(C)C)cc1` [zolpidem, Zolpidem] as the compound, how does the “share of net intrinsic clearance accounted for by imidazopyridyl methyl group oxidation” value read?
A: ~12%

Q: And the “share of net intrinsic clearance accounted for by oxidation of the benzylic methyl group” value?
A: approximately 84%
